Laboratory results reported in PubChem BioAssay AID2060600 (Molecular Pharmacology Branch, DTP, NCI, 2025).

System: 996289-038-R-J1-PDC complex spheroid viability
Experiment: Anticancer human tumor 996289-038-R-J1-PDC patient-derived colon adenocarcinoma cell line growth inhibition [CLK]
Conditions: for IC50: curve of first compound; for viability, T/C: stronger effect = lower value
How it was run: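 Multi-cell-type spheroids combined patient-derived tumor cells with HUVEC endothelial cells and human mesenchymal stem cells. Paired agents were dosed in half-log steps down from about clinical Cmax, or from 10 microM where Cmax was unknown.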

[1] = second compound 0.0316 µM, first compound 0.0316 µM
[2] = second compound 0.0316 µM, first compound 0.1 µM
[3] = second compound 0.0316 µM, first compound 0.316 µM
[4] = second compound 0.0316 µM, first compound 1 µM
[5] = second compound 0.0316 µM, first compound 3.16 µM
[6] = second compound 0.0316 µM, first compound 10 µM
[7] = second compound 0.1 µM, first compound 0.0316 µM
[8] = second compound 0.1 µM, first compound 0.1 µM
[9] = second compound 0.1 µM, first compound 0.316 µM
[10] = second compound 0.1 µM, first compound 1 µM
[11] = second compound 0.1 µM, first compound 3.16 µM
[12] = second compound 0.1 µM, first compound 10 µM
[13] = second compound 0.316 µM, first compound 0.0316 µM
[14] = second compound 0.316 µM, first compound 0.1 µM
[15] = second compound 0.316 µM, first compound 0.316 µM
[16] = second compound 0.316 µM, first compound 1 µM
[17] = second compound 0.316 µM, first compound 3.16 µM
[18] = second compound 0.316 µM, first compound 10 µM
[19] = second compound 1 µM, first compound 0.0316 µM
[20] = second compound 1 µM, first compound 0.1 µM
[21] = second compound 1 µM, first compound 0.316 µM
[22] = second compound 1 µM, first compound 1 µM
[23] = second compound 1 µM, first compound 3.16 µM
[24] = second compound 1 µM, first compound 10 µM
[25] = second compound 3.16 µM, first compound 0.0316 µM
[26] = second compound 3.16 µM, first compound 0.1 µM
[27] = second compound 3.16 µM, first compound 0.316 µM
[28] = second compound 3.16 µM, first compound 1 µM
[29] = second compound 3.16 µM, first compound 3.16 µM
[30] = second compound 3.16 µM, first compound 10 µM
[31] = second compound 10 µM, first compound 0.0316 µM
[32] = second compound 10 µM, first compound 0.1 µM
[33] = second compound 10 µM, first compound 0.316 µM
[34] = second compound 10 µM, first compound 1 µM
[35] = second compound 10 µM, first compound 3.16 µM
[36] = second compound 10 µM, first compound 10 µM
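Further: spheroids exposed to the agents for 7 days before readout.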

C#Cc1c(F)ccc2cc(O)cc(-c3ncc4c(N5CC6CCC(C5)N6)nc(OCC56CCCN5CC(F)C6)nc4c3F)c12 (stereo unspecified) + CN1CCN(c2cc(C(=O)Nc3cc4cc(-c5cnn(C)c5)ccc4cn3)ccn2)CC1
IC50 (second compound 0.0316 µM): 0.965 µM
IC50 (second compound 0.1 µM): 0.589 µM
IC50 (second compound 0.316 µM): 0.0923 µM
IC50 (second compound 1 µM): < 0.0316 µM
IC50 (second compound 3.16 µM): < 0.0316 µM
IC50 (second compound 10 µM): < 0.0316 µM
viability, T/C [1]: 102%
viability, T/C [2]: 92.2%
viability, T/C [3]: 64.3%
viability, T/C [4]: 52.9%
viability, T/C [5]: 34.8%
viability, T/C [6]: 28.4%
viability, T/C [7]: 85.5%
viability, T/C [8]: 71.2%
viability, T/C [9]: 58.1%
viability, T/C [10]: 45%
viability, T/C [11]: 28.6%
viability, T/C [12]: 22.2%
viability, T/C [13]: 58.7%
viability, T/C [14]: 50.2%
viability, T/C [15]: 35.9%
viability, T/C [16]: 26.7%
viability, T/C [17]: 20.7%
viability, T/C [18]: 16.6%
viability, T/C [19]: 4.83%
viability, T/C [20]: 4.1%
viability, T/C [21]: 3.5%
viability, T/C [22]: 2.81%
viability, T/C [23]: 2.14%
viability, T/C [24]: 2.96%
viability, T/C [25]: 1.47%
viability, T/C [26]: 1.31%
viability, T/C [27]: 1.59%
viability, T/C [28]: 0.95%
viability, T/C [29]: 0.67%
viability, T/C [30]: 0.45%
viability, T/C [31]: 0.72%
viability, T/C [32]: 0.61%
viability, T/C [33]: 1.23%
viability, T/C [34]: 0.99%
viability, T/C [35]: 0.36%
viability, T/C [36]: 0.65%

CC(CO)NC(=O)c1cc(-c2ccc(Cl)cc2)nn(-c2cnn(C)c2)c1=O (stereo unspecified) + CN1CCN(c2cc(C(=O)Nc3cc4cc(-c5cnn(C)c5)ccc4cn3)ccn2)CC1
IC50 (second compound 0.0316 µM): > 10 µM
IC50 (second compound 0.1 µM): > 10 µM
IC50 (second compound 0.316 µM): 8.01 µM
IC50 (second compound 1 µM): < 0.0316 µM
IC50 (second compound 3.16 µM): < 0.0316 µM
IC50 (second compound 10 µM): < 0.0316 µM
viability, T/C [1]: 105%
viability, T/C [2]: 96.2%
viability, T/C [3]: 95.3%
viability, T/C [4]: 107%
viability, T/C [5]: 102%
viability, T/C [6]: 82.3%
viability, T/C [7]: 107%
viability, T/C [8]: 104%
viability, T/C [9]: 89.8%
viability, T/C [10]: 83.9%
viability, T/C [11]: 84.9%
viability, T/C [12]: 66.9%
viability, T/C [13]: 75%
viability, T/C [14]: 70.2%
viability, T/C [15]: 67.3%
viability, T/C [16]: 68.4%
viability, T/C [17]: 69.2%
viability, T/C [18]: 45.5%
viability, T/C [19]: 8.41%
viability, T/C [20]: 6.34%
viability, T/C [21]: 6.26%
viability, T/C [22]: 6.91%
viability, T/C [23]: 6.32%
viability, T/C [24]: 4.74%
viability, T/C [25]: 1.59%
viability, T/C [26]: 0.78%
viability, T/C [27]: 2.09%
viability, T/C [28]: 2.22%
viability, T/C [29]: 0.69%
viability, T/C [30]: 1.38%
viability, T/C [31]: 1.12%
viability, T/C [32]: 0.98%
viability, T/C [33]: 0.62%
viability, T/C [34]: 0.94%
viability, T/C [35]: 0.67%
viability, T/C [36]: 0.38%

COc1c(OCCCN2CCOCC2)ccc2c3n(c(=NC(=O)c4cnc(N)nc4)nc12)CCN3 + CN1CCN(c2cc(C(=O)Nc3cc4cc(-c5cnn(C)c5)ccc4cn3)ccn2)CC1
IC50 (second compound 0.0316 µM): 0.0746 µM
IC50 (second compound 0.1 µM): 0.0377 µM
IC50 (second compound 0.316 µM): 0.00979 µM
IC50 (second compound 1 µM): < 0.00316 µM
IC50 (second compound 3.16 µM): < 0.00316 µM
IC50 (second compound 10 µM): < 0.00316 µM
viability, T/C (second compound 0.0316 µM, first compound 0.00316 µM): 87.7%
viability, T/C (second compound 0.0316 µM, first compound 0.01 µM): 88.8%
viability, T/C [1]: 64.5%
viability, T/C [2]: 43.9%
viability, T/C [3]: 30.1%
viability, T/C [4]: 18.7%
viability, T/C (second compound 0.1 µM, first compound 0.00316 µM): 86%
viability, T/C (second compound 0.1 µM, first compound 0.01 µM): 66.7%
viability, T/C [7]: 56.4%
viability, T/C [8]: 33.5%
viability, T/C [9]: 24.8%
viability, T/C [10]: 13.5%
viability, T/C (second compound 0.316 µM, first compound 0.00316 µM): 56.9%
viability, T/C (second compound 0.316 µM, first compound 0.01 µM): 50%
viability, T/C [13]: 36.3%
viability, T/C [14]: 21%
viability, T/C [15]: 12.7%
viability, T/C [16]: 8.17%
viability, T/C (second compound 1 µM, first compound 0.00316 µM): 2.97%
viability, T/C (second compound 1 µM, first compound 0.01 µM): 3.06%
viability, T/C [19]: 3.03%
viability, T/C [20]: 1.3%
viability, T/C [21]: 1.59%
viability, T/C [22]: 3.21%
viability, T/C (second compound 3.16 µM, first compound 0.00316 µM): 0.97%
viability, T/C (second compound 3.16 µM, first compound 0.01 µM): 0.95%
viability, T/C [25]: 2.68%
viability, T/C [26]: 0.71%
viability, T/C [27]: 2.1%
viability, T/C [28]: 1.27%
viability, T/C (second compound 10 µM, first compound 0.00316 µM): 1.28%
viability, T/C (second compound 10 µM, first compound 0.01 µM): 0.97%
viability, T/C [31]: 0.74%
viability, T/C [32]: 0.86%
viability, T/C [33]: 0.56%
viability, T/C [34]: 0.61%
